Data on 23 molecules can be found in patent US20190330141A1, “Compositions With A Cooling Effect” (The Procter & Gamble Company, priority 2018, published 2019).

Where a name gives a salt, the structure may show the parent alone. Read-outs that look alike come from different tables or passages of the source. Some results are limits rather than exact numbers.

One experiment has as its target T1, human TRPM8 (Homo sapiens, UniProt Q7Z2W7).
T1 construct: expressed in transfected cells; host or cells: HEK-293
Put plainly: TRPM8 Protocol-FLIPR Assay (intracellular Ca2+ in transfected HEK-293 cells). As to conditions: for EC50 values compared with Comp 4: comparison with the EC50 value of Comp 4. The class given is cell-based. How it is done:
To determine whether TRPM8 is activated, the intracellular calcium ion (Ca^2+) level was measured from transfected cells with the TRPM8 receptor sequence (SEQ ID NO: 1). HEK-293 (human embryonic kidney) cells stably transfected with human TRPM8 were grown in 15 mL growth medium (high glucose DMEM (Dulbecco's Modification of Eagle's Medium) supplemented with 10% FBS (fetal bovine serum), 100 μg/mL penicillin/streptomycin, 5 μg/mL blasticindin, and 100 μg/mL zeocin) in a 75 cm^2 flask for 3 days at 37° C. in a mammalian cell culture incubator (Forma Scientific Model 3110, Marietta, Ohio) set at 5% CO2. Cells were detached with addition of 2 mL of trypsin-EDTA buffer (GIBCO® 25200, Invitrogen, Grand Island, N.Y.) for about 2-3 min. Trypsin was inactivated by addition of 8 mL growth medium. Cells were transferred to a 50 mL tube and centrifuged at 850 rpm for 3 minutes to remove medium. After centrifugation, a pellet of cells was formed in the bottom of the tube separating them from the supernatant solution. The supernatant was discarded and the cell pellet was suspended in 1 mL of fresh growth medium to which 5 μL (12.5 μg) of Fluo-4 AM (Molecular Probes, Inc., Eugene, Oreg.) calcium indicator was added and incubated for 30 min with gentle shaking. Fluo-4 AM is a fluorescent dye used for quantifying cellular Ca^2+ concentrations in the 100 nM to 1 μM range. At the end of 30 minutes, 45 mL of assay buffer (1×HBSS (Hank's Balanced Salt Solution), 20 mM HEPES (4-(2-Hydroxyethyl)-1-piperazineethanesulfonic acid)) was added to wash cells and the resulting mixture was then centrifuged at 850 rpm for 3 minutes at 20° C. to remove excess buffer and Fluo-4 AM calcium indicator.
The pelleted cells were re-suspended in 10 mL assay buffer and 90 μL aliquots (50,000 cells) per well delivered to a 96-well assay plate containing 10 μL of test compounds (1 mM in assay buffer, final concentration 100 μM) or buffer control and incubated at room temperature for 30 minutes. After 30 minutes, a plate (Falcon 353219, Corning Corning N.Y.) was placed into a fluorometric imaging plate reader (FLIPR384 from Molecular Devices, Sunnyvale, Calif.) and basal fluorescence recorded (excitation wave length 488 nm and emission wave length 510 nm). Then 20 μL of 100 mM of TRPM8 agonist WS5 coolant in the assay buffer was added and fluorescence recorded. For determining the direct effect of test compounds on TRPM8, fluorescence was measured immediately after addition of each compound. Additional discussion of the FLIPR method can be found in Smart et al., Characterization using FLIPR of human vanilloid VR1 receptor pharmacology, European Journal of Pharmacology 417, 51-58 (2001) and Liu et al., Development and validation of a platelet calcium flux assay using a fluorescent imaging plate reader, Analytical Biochemistry 357, 216-224 (2006).
The magnitude of the fluorescence of the active-treated cells was compared to the magnitude of the fluorescence from a benchmark agonist (WS-5), as described above. The percentage of fluorescence as a function of active dose was plotted and a sigmoidal curve was generated. Curve fitting from this dose-response curve yielded the value for TRPM8 EC50 in μM found in TABLE 8.
TRPM8 activation was determined by measuring intracellular calcium ion (Ca^2+) level from transfected cells with the TRPM8 receptor gene, as described in EXAMPLE 12, the results of which are shown in TABLE 8. EC50 values are provided in column 3 of TABLE 8, which measured the concentration of activating compound needed to […]. […]

For experiment [1] the following is noted: concentration where the cooling effect could be clearly recognized; cited from earlier work.
The mark [2] stands for this setting: HEK-293 cells stably transfected with human TRPM8, fluorescence compared to benchmark agonist WS-5, dose-response curve fit, read-out: TRPM8 Activity EC50.
Where [3] appears, read: less than about 1 μM, 0.6 μM, or the EC50 value of Comp 3, read-out: EC50 values.

T1 sequence (Q7Z2W7 whole entry): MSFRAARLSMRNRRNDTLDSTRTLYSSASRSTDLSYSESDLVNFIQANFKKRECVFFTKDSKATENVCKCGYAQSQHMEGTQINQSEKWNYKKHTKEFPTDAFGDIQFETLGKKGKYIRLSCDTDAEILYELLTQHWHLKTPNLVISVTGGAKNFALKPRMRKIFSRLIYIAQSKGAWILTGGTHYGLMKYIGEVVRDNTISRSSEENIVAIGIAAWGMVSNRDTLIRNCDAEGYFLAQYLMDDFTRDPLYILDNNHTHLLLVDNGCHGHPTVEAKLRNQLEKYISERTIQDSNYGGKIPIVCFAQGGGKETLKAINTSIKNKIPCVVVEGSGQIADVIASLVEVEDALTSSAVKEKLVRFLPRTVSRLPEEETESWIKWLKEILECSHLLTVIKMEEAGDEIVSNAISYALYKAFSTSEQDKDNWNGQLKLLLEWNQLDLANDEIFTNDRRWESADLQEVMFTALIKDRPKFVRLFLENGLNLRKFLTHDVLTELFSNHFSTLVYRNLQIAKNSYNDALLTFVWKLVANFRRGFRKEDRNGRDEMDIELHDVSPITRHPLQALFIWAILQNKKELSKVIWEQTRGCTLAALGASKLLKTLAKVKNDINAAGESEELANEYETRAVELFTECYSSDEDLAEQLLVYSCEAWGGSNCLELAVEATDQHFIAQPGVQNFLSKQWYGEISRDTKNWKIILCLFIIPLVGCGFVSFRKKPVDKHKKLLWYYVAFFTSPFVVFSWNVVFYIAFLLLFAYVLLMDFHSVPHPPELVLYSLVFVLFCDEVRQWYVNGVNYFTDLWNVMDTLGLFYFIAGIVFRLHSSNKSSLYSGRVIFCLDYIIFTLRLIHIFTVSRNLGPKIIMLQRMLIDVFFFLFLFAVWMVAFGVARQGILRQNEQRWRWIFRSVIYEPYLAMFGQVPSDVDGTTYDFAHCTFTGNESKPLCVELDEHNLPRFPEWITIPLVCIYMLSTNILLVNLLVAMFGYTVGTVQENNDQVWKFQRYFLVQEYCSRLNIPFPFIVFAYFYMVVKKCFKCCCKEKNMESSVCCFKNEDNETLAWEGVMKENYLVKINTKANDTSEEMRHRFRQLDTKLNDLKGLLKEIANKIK

For the molecule `N[C@H](CNC(=O)c1ccccc1)c1ccccc1` [Comp 1, reference compound], the EC50 on human TRPM8 (setting [2]) was above 10000 nM.
As to `Cc1ccc(C(C)C)c(OC(=O)C[C@@H](N)c2ccccc2)c1` [Comp 2, reference compound], the EC50 at human TRPM8 (setting [2]) stood at 12000 nM.
As to `CC(C)[C@@H]1CC[C@@H](C)C[C@H]1C(=O)Nc1ccc(CC#N)cc1` [Comp 3, reference compound], the EC50 on human TRPM8 (setting [2]) was 600 nM.
On the same count and under the same terms, the value for `CC(C)[C@@H]1CC[C@@H](C)C[C@H]1C(=O)NC[C@@H](NC(=O)[C@H](C)N)c1ccccc1` [Comp 4, reference compound] was 9 nM.
With `CC(C)[C@@H]1CC[C@@H](C)C[C@@H]1O` [Compound 1-neomenthol, 1-neomenthol], the cooling threshold entry in experiment [1] is “about 3,000 ppb”.
For the molecule `NCC(=O)N[C@H](CNC(=O)c1ccccc1)c1ccccc1` [Compound 1a, (S)-2-((2-benzamido-1-phenylethyl)amino)-2-oxoethan-1-aminium chloride], the EC50 on human TRPM8 (setting [2]) is 655 nM; on human TRPM8 (setting [3]) it was below 1000 nM.
Taken in the same sequence, the figures for `C[C@@H](N)C(=O)N[C@H](CNC(=O)c1ccccc1)c1ccccc1` [Compound 1c, (R)-1-(((S)-2-benzamido-1-phenylethyl)amino)-1-oxopropan-2-aminium chloride] were 582 nM and below 1000 nM.
On to `C[C@@H](N)C(=O)N[C@H](CNC(=O)c1cccnc1)c1ccccc1` [Compound 2c, (R)-1-(((S)-2-(nicotinamido)-1-phenylethyl)amino)-1-oxopropan-2-aminium chloride], for which the EC50 at human TRPM8 (setting [2]) was found to be 28000 nM.
Still for that read-out and setting: the value for `CC(C)=CCC/C(C)=C/C(=O)NC[C@@H](NC(=O)CN)c1ccccc1` [Compound 4a, (S,E)-2-((2-(3,7-dimethylocta-2,6-dienamido)-1-phenylethyl)amino-2-oxoethan-1-aminium chloride] was 1200 nM.
With `CC(C)=CCC/C(C)=C/C(=O)NC[C@@H](NC(=O)[C@@H](C)N)c1ccccc1` [Compound 4b, (R)-1-(((S)-2-((E)-3,7-dimethylocta-2,6-dienamido)-1-phenylethyl)amino)-1-oxopropan-2-aminium chloride], the EC50 at human TRPM8 (setting [2]) turned out to be 1450 nM.
Consider `Cc1ccc(C(C)C)c(C(=O)NC[C@@H](NC(=O)CN)c2ccccc2)c1.Cl` [Compound 6a, (S)-2-((2-(2-isopropyl-5-methylbenzamido)-1-phenylethyl)amino-2-oxoethan-1-aminium chloride], for which the EC50 on human TRPM8 (setting [2]) is 1.9 nM; at human TRPM8 (setting [3]) it was below 1000 nM.
`Cc1ccc(C(C)C)c(C(=O)NC[C@@H](NC(=O)CN)c2ccccc2)c1.Cl` [Compound 6a]: the “EC50 values compared with Comp 4” value on human TRPM8 was “about the same or less than the EC50 value of Comp 4”.
Regarding `Cc1ccc(C(C)C)c(C(=O)NC[C@@H](N)c2ccccc2)c1` [Compound 6b, (S)-2-(2-isopropyl-5-methylbenzamido)-1-phenylethan-1-aminium chloride], the EC50 at human TRPM8 (setting [2]) is 155 nM; at human TRPM8 (setting [3]), below 1000 nM.
As to `Cc1ccc(C(C)C)c(C(=O)NC[C@@H](NC(=O)[C@@H](C)N)c2ccccc2)c1.Cl` [Compound 6c, (R)-1-(((S)-2-(2-isopropyl-5-methylbenzamido)-1-phenylethyl)amino)-1-oxopropan-2-aminium chloride], the EC50 at human TRPM8 (setting [2]) is 3.2 nM; on human TRPM8 (setting [3]), below 1000 nM. In addition, the “EC50 values compared with Comp 4” value at human TRPM8 is listed as “about the same or less than the EC50 value of Comp 4”.
The like results for `Cc1ccc(C(C)C)c(C(=O)NC[C@@H](NC(=O)[C@H](C)N)c2ccccc2)c1.Cl` [Compound 6d, (S)-1-(((S)-2-(2-isopropyl-5-methylbenzamido)-1-phenylethyl)amino)-1-oxopropan-2-aminium chloride] were, in that order, 6.6 nM, below 1000 nM and “about the same or less than the EC50 value of Comp 4”.
For `Cc1ccc(C(C)C)c(OC(=O)C[C@@H](NC(=O)CN)c2ccccc2)c1` [Compound 7a, (R)-2-((3-(2-isopropyl-5-methylphenoxy)-3-oxo-1-phenylpropyl)amino-2-oxoethan-1-aminium chloride], the EC50 was 230 nM on human TRPM8 (setting [2]) and below 1000 nM on human TRPM8 (setting [3]).
Consider `Cc1ccc(C(C)C)c(OC(=O)C[C@@H](NC(=O)[C@@H](C)N)c2ccccc2)c1` [Compound 7b, (R)-1-(((R)-3-(2-isopropyl-5-methylphenoxy)-3-oxo-1-phenylpropyl)amino)-1-oxopropan-2-aminium chloride], for which the EC50 on human TRPM8 (setting [2]) was 60 nM; at human TRPM8 (setting [3]), below 1000 nM.
With `CC(C)C(C)(C(=O)OC[C@@H](NC(=O)[C@H](C)N)c1ccccc1)C(C)C` [Compound 8a, (S)-2-((S)-2-aminopropanamido)-2-phenylethyl 2-isopropyl-2,3-dimethylbutanoate hydrochloride], the EC50 at human TRPM8 (setting [2]) was 415 nM; on human TRPM8 (setting [3]) it was below 1000 nM.
With `CC(C)C(C)(C(=O)OC[C@@H](NC(=O)[C@@H](C)N)c1ccccc1)C(C)C` [Compound 8b, (S)-2-((R)-2-aminopropanamido)-2-phenylethyl 2-isopropyl-2,3-dimethylbutanoate hydrochloride], the EC50 was 57 nM at human TRPM8 (setting [2]) and below 1000 nM on human TRPM8 (setting [3]).
Take `CC(C)C(C)(C(=O)NC[C@@H](OC(=O)CN)c1ccccc1)C(C)C.Cl` [Compound 10a, (S)-2-(2-isopropyl-2,3-dimethylbutanamido)-1-phenylethyl glycinate hydrochloride]: the EC50 at human TRPM8 (setting [2]) was 7.85 nM; at human TRPM8 (setting [3]) it was below 1000 nM. Moreover, the “EC50 values compared with Comp 4” value at human TRPM8 was “about the same or less than the EC50 value of Comp 4”.
For the molecule `NCC(=O)O[C@H](CNC(=O)C12CC3CC(CC(C3)C1)C2)c1ccccc1` [Compound 11a, (S)-2-((3S,5S,7S)-adamantane-1-carboxamido)-1-phenylethyl glycinate hydrochloride], the EC50 on human TRPM8 (setting [2]) was 17.2 nM; at human TRPM8 (setting [3]), below 1000 nM.
With `CC(C)[C@@H]1CC[C@@H](C)C[C@H]1O` [L-menthol], in experiment [1], the cooling threshold entry was “about 800 ppb”.
Take `CC(C)[C@@H]1CC[C@@H](C)C[C@@H]1O` [d-neomenthol]: in experiment [1], the cooling threshold result is recorded as “about 25,000 ppb”.
